“And” between values parts separate entries of the source, which are not always exact repeats. Identical values can stand only once. Toxic doses and inconclusive results are not listed. Rule as the data show it: active = T/C of 150% or more; inactive = T/C below 125%.
System: L1210 leukemia ip in BDF1 mice, survival T/C
Experiment: NCI In Vivo Anticancer Drug Screen. Data for tumor model L1210 Leukemia (intraperitoneal) in B6D2F1 (BDF1) mice
Conditions: endpoint: mean survival time, higher = longer survival
How it was run: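 Ratio derived from survival: compound-dosed mice over vehicle-dosed mice, all bearing a transplantable tumor.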

[1] = dose: 100.0 mg/kg/injection, schedule: Q01DX001 (ip), vehicle: saline
[2] = dose: 100.0 mg/kg/injection, schedule: Q01DX009 (ip), vehicle: saline with Tween-80
[3] = dose: 100.0 mg/kg/injection, schedule: Q04DX002 (ip), vehicle: Klucel (hydroxypropylcellulose) (HPC)
[4] = dose: 100.0 mg/kg/injection, schedule: Q04DX003 (ip), vehicle: saline with Tween-80
[5] = dose: 200.0 mg/kg/injection, schedule: Q01DX009 (ip), vehicle: saline with Tween-80
[6] = dose: 200.0 mg/kg/injection, schedule: Q04DX003 (ip), vehicle: saline with Tween-80
[7] = dose: 400.0 mg/kg/injection, schedule: Q04DX003 (ip), vehicle: saline with Tween-80

Measured: T/C

CC(C)NC(=O)N(c1ccccc1)c1ccccc1
inactive: dose: 100.0 mg/kg/injection, schedule: Q01DX009 (ip), vehicle: gum acacia 104 % of control | dose: 100.0 mg/kg/injection, schedule: Q04DX003 (ip), vehicle: gum acacia 97 % of control | dose: 200.0 mg/kg/injection, schedule: Q01DX009 (ip), vehicle: gum acacia 111 % of control | dose: 200.0 mg/kg/injection, schedule: Q04DX003 (ip), vehicle: gum acacia 100 % of control | dose: 400.0 mg/kg/injection, schedule: Q01DX009 (ip), vehicle: gum acacia 101 % of control | dose: 400.0 mg/kg/injection, schedule: Q04DX003 (ip), vehicle: gum acacia 99 % of control

CNC(=O)CCC(=O)O
inactive: dose: 50.0 mg/kg/injection, schedule: Q04DX003 (ip), vehicle: saline 103 % of control | [1] 102 % of control | dose: 100.0 mg/kg/injection, schedule: Q04DX003 (ip), vehicle: saline 107 % of control | dose: 200.0 mg/kg/injection, schedule: Q01DX001 (ip), vehicle: saline 93 % of control | dose: 200.0 mg/kg/injection, schedule: Q04DX003 (ip), vehicle: saline 108 % of control | dose: 400.0 mg/kg/injection, schedule: Q01DX001 (ip), vehicle: saline 94 % of control

Nc1ccc2nc3ccc(N)cc3[n+](-c3ccccc3)c2c1
inactive: dose: 5.0 mg/kg/injection, schedule: Q01DX001 (ip), vehicle: other 111 % of control | dose: 10.0 mg/kg/injection, schedule: Q01DX001 (ip), vehicle: other 108 % of control | dose: 18.0 mg/kg/injection, schedule: Q01DX001 (ip), vehicle: other 101 % of control and 103 % of control | dose: 20.0 mg/kg/injection, schedule: Q01DX001 (ip), vehicle: other 108 % of control | dose: 27.0 mg/kg/injection, schedule: Q01DX001 (ip), vehicle: other 106 % of control and 118 % of control | dose: 40.0 mg/kg/injection, schedule: Q01DX001 (ip), vehicle: other 110 % of control and 114 % of control | dose: 60.0 mg/kg/injection, schedule: Q01DX001 (ip), vehicle: other 104 % of control

CC(CO)(CO)N=Cc1cc([N+](=O)[O-])ccc1O
inactive: dose: 100.0 mg/kg/injection, schedule: Q01DX001 (ip), vehicle: carboxymethylcellulose (CMC) 98 % of control | dose: 200.0 mg/kg/injection, schedule: Q01DX001 (ip), vehicle: carboxymethylcellulose (CMC) 98 % of control | dose: 400.0 mg/kg/injection, schedule: Q01DX001 (ip), vehicle: carboxymethylcellulose (CMC) 98 % of control

Cc1c2ccccc2c(CSCC(N)C(=O)O)c2ccc3ccccc3c12 (configuration not stated)
inactive: [2] 87 % of control | dose: 400.0 mg/kg/injection, schedule: Q01DX009 (ip), vehicle: saline with Tween-80 87 % of control

CCc1cccc(CC)c1N1C(=O)C=CC1=O
inactive: dose: 1.56 mg/kg/injection, schedule: Q01DX009 (ip), vehicle: other 102 % of control | dose: 3.13 mg/kg/injection, schedule: Q01DX009 (ip), vehicle: other 105 % of control | dose: 3.13 mg/kg/injection, schedule: Q04DX002 (ip), vehicle: other 87 % of control | dose: 6.25 mg/kg/injection, schedule: Q01DX009 (ip), vehicle: other 105 % of control | dose: 6.25 mg/kg/injection, schedule: Q04DX002 (ip), vehicle: other 93 % of control | dose: 12.5 mg/kg/injection, schedule: Q04DX002 (ip), vehicle: other 107 % of control

NNC(=O)CSSCC(=O)NN
inactive: [3] 101 % of control

OCCSc1ccc(Cl)cc1
inactive: dose: 100.0 mg/kg/injection, schedule: Q01DX009 (ip), vehicle: other 97 % of control | dose: 200.0 mg/kg/injection, schedule: Q01DX009 (ip), vehicle: other 95 % of control

O=S(=O)(CCCl)Cc1ccc(Cl)cc1
inactive: [3] 104 % of control | dose: 200.0 mg/kg/injection, schedule: Q04DX002 (ip), vehicle: Klucel (hydroxypropylcellulose) (HPC) 93 % of control

CC(=O)CCCC(C)C1CCC2C3CC=C4CC(O)CCC4(C)C3CCC12C (configuration not stated)
inactive: dose: 75.0 mg/kg/injection, schedule: Q01DX009 (sc), vehicle: steriod suspending solution 99 % of control | dose: 100.0 mg/kg/injection, schedule: Q01DX001 (sc), vehicle: steriod suspending solution 105 % of control | dose: 150.0 mg/kg/injection, schedule: Q01DX009 (sc), vehicle: steriod suspending solution 94 % of control | dose: 200.0 mg/kg/injection, schedule: Q01DX001 (sc), vehicle: steriod suspending solution 101 % of control | dose: 300.0 mg/kg/injection, schedule: Q01DX009 (sc), vehicle: steriod suspending solution 92 % of control | dose: 400.0 mg/kg/injection, schedule: Q01DX001 (sc), vehicle: steriod suspending solution 101 % of control

CC(C)(C(=O)OCCOCCCl)c1cccc2ccccc12
inactive: dose: 100.0 mg/kg/injection, schedule: Q04DX002 (ip), vehicle: saline with Tween-80 113 % of control | dose: 200.0 mg/kg/injection, schedule: Q04DX002 (ip), vehicle: saline with Tween-80 111 % of control | dose: 400.0 mg/kg/injection, schedule: Q04DX002 (ip), vehicle: saline with Tween-80 95 % of control

O=c1[nH][nH]c(=O)n1O
inactive: dose: 100.0 mg/kg/injection, schedule: Q01DX001 (ip), vehicle: saline with Tween-80 102 % of control | dose: 100.0 mg/kg/injection, schedule: Q01DX009 (ip), vehicle: acetone 105 % of control | [2] 91 % of control | dose: 100.0 mg/kg/injection, schedule: Q01DX009 (ip), vehicle: saline 94 % of control and 92 % of control | [4] 101 % of control and 109 % of control | dose: 130.0 mg/kg/injection, schedule: Q01DX009 (ip), vehicle: saline 89 % of control | dose: 200.0 mg/kg/injection, schedule: Q01DX001 (ip), vehicle: saline with Tween-80 106 % of control | [5] 88 % of control | [6] 102 % of control and 105 % of control | dose: 300.0 mg/kg/injection, schedule: Q01DX009 (ip), vehicle: saline 98 % of control and 89 % of control | dose: 400.0 mg/kg/injection, schedule: Q01DX001 (ip), vehicle: saline with Tween-80 104 % of control | dose: 400.0 mg/kg/injection, schedule: Q01DX009 (ip), vehicle: acetone 88 % of control | dose: 400.0 mg/kg/injection, schedule: Q01DX009 (ip), vehicle: saline 88 % of control | [7] 98 % of control and 89 % of control

ON(C(=Nc1ccccc1)c1ccccc1)c1ccccc1
inactive: dose: 50.0 mg/kg/injection, schedule: Q01DX001 (ip), vehicle: saline 102 % of control | [1] 101 % of control

CN(C)CCNCC(Cc1ccccc1)c1ccccc1 (configuration not stated)
inactive: dose: 25.0 mg/kg/injection, schedule: Q04DX002 (ip), vehicle: saline 92 % of control | dose: 50.0 mg/kg/injection, schedule: Q04DX002 (ip), vehicle: saline 92 % of control | dose: 100.0 mg/kg/injection, schedule: Q04DX002 (ip), vehicle: saline 100 % of control and 89 % of control

CC(C)CCCC(C)C1CCC2C3CC=C4CC([S+](C)C)CCC4(C)C3CCC12C (configuration not stated)
inactive: dose: 25.0 mg/kg/injection, schedule: Q01DX009 (ip), vehicle: saline 96 % of control | dose: 50.0 mg/kg/injection, schedule: Q01DX009 (ip), vehicle: saline 96 % of control | dose: 100.0 mg/kg/injection, schedule: Q04DX003 (ip), vehicle: alcohol 98 % of control

CC1(C)C=C(C(Br)c2cccc(Cl)c2)C(=O)c2ccccc21 (configuration not stated)
inactive: dose: 100.0 mg/kg/injection, schedule: Q01DX009 (ip), vehicle: Klucel (hydroxypropylcellulose) (HPC) 101 % of control | dose: 100.0 mg/kg/injection, schedule: Q04DX003 (ip), vehicle: Klucel (hydroxypropylcellulose) (HPC) 109 % of control | dose: 200.0 mg/kg/injection, schedule: Q01DX009 (ip), vehicle: Klucel (hydroxypropylcellulose) (HPC) 104 % of control | dose: 200.0 mg/kg/injection, schedule: Q04DX003 (ip), vehicle: Klucel (hydroxypropylcellulose) (HPC) 106 % of control | dose: 400.0 mg/kg/injection, schedule: Q01DX009 (ip), vehicle: Klucel (hydroxypropylcellulose) (HPC) 106 % of control | dose: 400.0 mg/kg/injection, schedule: Q04DX003 (ip), vehicle: Klucel (hydroxypropylcellulose) (HPC) 104 % of control

CN(C)N=Nc1ccc([N+](=O)[O-])cc1Cl
inactive: [4] 101 % of control | dose: 134.0 mg/kg/injection, schedule: Q01DX009 (ip), vehicle: saline with Tween-80 113 % of control | [5] 115 % of control | [6] 105 % of control | [7] 112 % of control
